Laboratory results taken from US7319098B2, “1,3-dioxoisoindole derivatives having selective antagonism of T-type calcium channel” (Korea Institute of Science and Technology, priority 2006, dated 2008).

Target: T1, α1G T-type Ca2+ channels (Homo sapiens, UniProt O43497)
T1 construct: expressed in transfected cells; host or cells: HEK293 cells stably expressing α1G and Kir2.1
Assay: Screening of activity against T-type calcium channel with FDSS6000 (fluorescence, KCl-induced [Ca2+]i increase)
Type: cell-based
Conditions: 100 μM; HEK293 cells expressing α1G and Kir2.1; read-out: Inhibitory effect (%) of T-type calcium channel, Inhibition (%)
Protocol: Meanwhile, the antagonistic activity of the novel compound of Formula (1) herein against T-type calcium channel was tested as described below. The synthesized compounds were tested for the activity against T-type calcium channel with FDSS6000. Compounds with good activity were selected and IC50 values were exactly obtained by using electrophysiological whole cell patch clamp method. HEK293 cells which stably express both α1G and Kir2.1 subunits were grown in Dulbecco's modified Eagle's medium supplemented with 10% (v/v) fetal bovine serum, penicillin (100 U/mL), streptomycin (100 μg/mL), geneticin (500 μg/mL), and +puromycin (I μg/mL) at 37° C. in a humid atmosphere of 5% CO2 and 95% air. Cells were seeded into 96-well black wall clear bottom plates at a density of 4×10^4 cells/well and were used the next day for high-throughput screening (HTS) FDSS6000 assay. For FDSS6000 assay, cells were incubated for 60 min at room temperature with 5 μM fluo3/AM and 0.001% Pluronic F-127 in a HEPES-buffered solution composed of (in mM): 115 NaCl, 5.4 KCl, 0.8 MgCl2, 1.8 CaCl2, 20 HEPES, 13.8 glucose (pH 7.4). During the fluorescence-based FDSS6000 assay, cells in HEPES-buffered solution containing 10 mM CaCl2 were pretreated with a certain concentration of test compounds and then treated with high concentration of KCl ([…]). α1G T-type Ca^2+ channels were activated by using high concentration of KCl (70 mM) and the increase in [Ca^2+]i by KCl-induced depolarization was detected. During the whole procedure, cells were washed using the BIO-TEK 96-well washer. All data were collected and analyzed using FDSS6000 and related software (Hamamatsu, Japan). The IC50 results of examining the inhibitory effects of the compounds herein selected with FDSS6000 on the calcium influx through the T-type calcium channel are provided in TABLEs 1 and 2.

T1 sequence (O43497 whole entry): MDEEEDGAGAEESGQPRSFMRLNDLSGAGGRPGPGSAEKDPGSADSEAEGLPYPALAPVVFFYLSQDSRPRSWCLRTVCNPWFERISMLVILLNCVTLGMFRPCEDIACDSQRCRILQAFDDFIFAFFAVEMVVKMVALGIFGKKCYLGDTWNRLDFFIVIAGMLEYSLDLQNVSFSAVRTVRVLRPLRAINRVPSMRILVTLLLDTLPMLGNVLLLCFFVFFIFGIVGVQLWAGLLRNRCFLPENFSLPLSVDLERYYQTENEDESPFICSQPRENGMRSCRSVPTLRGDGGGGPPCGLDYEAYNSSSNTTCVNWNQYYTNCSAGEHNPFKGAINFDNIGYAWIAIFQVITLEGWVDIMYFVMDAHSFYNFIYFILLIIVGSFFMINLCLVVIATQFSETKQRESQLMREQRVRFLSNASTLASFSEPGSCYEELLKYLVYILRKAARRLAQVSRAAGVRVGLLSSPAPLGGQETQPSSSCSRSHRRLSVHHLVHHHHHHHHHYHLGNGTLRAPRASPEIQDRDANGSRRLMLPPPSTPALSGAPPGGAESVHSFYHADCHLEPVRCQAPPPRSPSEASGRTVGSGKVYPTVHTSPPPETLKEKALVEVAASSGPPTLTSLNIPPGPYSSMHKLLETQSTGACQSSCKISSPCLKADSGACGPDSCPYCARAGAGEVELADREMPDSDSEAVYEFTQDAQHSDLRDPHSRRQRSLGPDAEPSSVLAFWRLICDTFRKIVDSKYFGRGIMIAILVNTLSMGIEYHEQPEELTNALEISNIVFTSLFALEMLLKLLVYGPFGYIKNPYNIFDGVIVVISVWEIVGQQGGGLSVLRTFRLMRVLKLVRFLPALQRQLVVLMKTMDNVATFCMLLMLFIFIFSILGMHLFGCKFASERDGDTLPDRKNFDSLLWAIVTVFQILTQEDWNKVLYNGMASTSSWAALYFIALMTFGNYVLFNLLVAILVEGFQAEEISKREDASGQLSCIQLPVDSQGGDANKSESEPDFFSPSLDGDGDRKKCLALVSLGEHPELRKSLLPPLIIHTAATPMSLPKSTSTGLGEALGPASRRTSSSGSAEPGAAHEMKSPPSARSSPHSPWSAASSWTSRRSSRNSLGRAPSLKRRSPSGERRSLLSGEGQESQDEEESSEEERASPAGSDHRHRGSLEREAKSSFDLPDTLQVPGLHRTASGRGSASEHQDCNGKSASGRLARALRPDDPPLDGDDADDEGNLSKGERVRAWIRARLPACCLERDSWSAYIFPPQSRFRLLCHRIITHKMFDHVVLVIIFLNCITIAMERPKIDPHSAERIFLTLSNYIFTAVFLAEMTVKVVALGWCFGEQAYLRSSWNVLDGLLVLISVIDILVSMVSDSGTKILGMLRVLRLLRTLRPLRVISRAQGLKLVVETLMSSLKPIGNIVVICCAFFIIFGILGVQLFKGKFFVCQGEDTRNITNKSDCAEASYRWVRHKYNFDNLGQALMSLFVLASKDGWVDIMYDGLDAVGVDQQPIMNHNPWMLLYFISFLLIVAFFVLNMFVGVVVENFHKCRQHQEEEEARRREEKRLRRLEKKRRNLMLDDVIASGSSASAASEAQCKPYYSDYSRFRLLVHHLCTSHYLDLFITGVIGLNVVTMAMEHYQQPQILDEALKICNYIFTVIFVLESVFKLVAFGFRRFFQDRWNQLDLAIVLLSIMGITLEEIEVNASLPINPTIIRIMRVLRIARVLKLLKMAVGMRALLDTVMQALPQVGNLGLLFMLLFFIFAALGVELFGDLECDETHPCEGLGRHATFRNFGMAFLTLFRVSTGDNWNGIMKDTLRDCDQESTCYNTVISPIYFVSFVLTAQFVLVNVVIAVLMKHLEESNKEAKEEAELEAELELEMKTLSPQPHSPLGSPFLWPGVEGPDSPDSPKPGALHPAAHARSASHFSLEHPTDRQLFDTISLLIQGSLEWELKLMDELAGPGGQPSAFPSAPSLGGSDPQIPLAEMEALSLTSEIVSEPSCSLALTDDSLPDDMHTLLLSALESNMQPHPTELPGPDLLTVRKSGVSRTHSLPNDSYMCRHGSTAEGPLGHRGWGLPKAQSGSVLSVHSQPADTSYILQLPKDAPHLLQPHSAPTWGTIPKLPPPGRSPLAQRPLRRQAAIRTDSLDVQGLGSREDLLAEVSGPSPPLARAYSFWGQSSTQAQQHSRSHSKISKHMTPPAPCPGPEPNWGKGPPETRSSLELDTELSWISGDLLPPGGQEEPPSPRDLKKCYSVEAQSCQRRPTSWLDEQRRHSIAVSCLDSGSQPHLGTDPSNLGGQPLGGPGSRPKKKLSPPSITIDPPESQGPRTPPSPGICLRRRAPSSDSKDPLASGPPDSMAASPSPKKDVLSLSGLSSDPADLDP

Row | SMILES | inhibition at 100 µM [%]
1 | O=C(NCCN1CCCCC1)c1ccc2c(c1)C(=O)N(c1ccccc1)C2=O [Compound 1, 1-{2-[(1,3-dioxo-2-phenyl-2,3-dihydro-1H-isoindol-5-carbonyl)-amino]-ethyl}-piperidinium chloride] | 28.1
2 | O=C(NCCN1CCCC1)c1ccc2c(c1)C(=O)N(c1ccccc1)C2=O [Compound 3, 1-{2-[(1,3-dioxo-2-phenyl-2,3-dihydro-1H-isoindol-5-carbonyl)-amino]-ethyl}-pyrrolidinium chloride] | 20.3
3 | O=C(NCCCN1CCCC1)c1ccc2c(c1)C(=O)N(c1ccccc1)C2=O [Compound 4, 1-{3-[(1,3-dioxo-2-phenyl-2,3-dihydro-1H-isoindol-5-carbonyl)-amino]-propyl}-pyrrolidinium chloride] | 38.7
4 | O=C(NCCN1CCOCC1)c1ccc2c(c1)C(=O)N(c1ccccc1)C2=O [Compound 5, 4-{2-[(1,3-dioxo-2-phenyl-2,3-dihydro-1H-isoindol-5-carbonyl)-amino]-ethyl}-4-morpholinium chloride] | 22.7
5 | O=C(NCCCN1CCOCC1)c1ccc2c(c1)C(=O)N(c1ccccc1)C2=O [Compound 6, 4-{3-[(1,3-dioxo-2-phenyl-2,3-dihydro-1H-isoindol-5-carbonyl)-amino]-propyl}-4-morpholinium chloride] | 22.3
6 | O=C(NCCN1CCCCC1)c1ccc2c(c1)C(=O)N(c1ccccc1F)C2=O [Compound 7, 1-(2-{[2-(2-fluoro-phenyl)-1,3-dioxo-2,3-dihydro-1H-isoindol-5-carbonyl]-amino}-ethyl)-piperidinium chloride] | 40.6
7 | O=C(NCCN1CCCC1)c1ccc2c(c1)C(=O)N(c1ccccc1F)C2=O [Compound 9, 1-(2-{[2-(2-fluoro-phenyl)-1,3-dioxo-2,3-dihydro-1H-isoindol-5-carbonyl]-amino}-ethyl)-pyrrolidinium chloride] | 39.7
8 | O=C(NCCCN1CCCC1)c1ccc2c(c1)C(=O)N(c1ccccc1F)C2=O [Compound 10, 1-(3-{[2-(2-fluoro-phenyl)-1,3-dioxo-2,3-dihydro-1H-isoindol-5-carbonyl]-amino}-propyl)-pyrrolidinium chloride] | 32.5
9 | O=C(NCCN1CCOCC1)c1ccc2c(c1)C(=O)N(c1ccccc1F)C2=O [Compound 11, 4-(2-{[2-(2-fluoro-phenyl)-1,3-dioxo-2,3-dihydro-1H-isoindol-5-carbonyl]-amino}-ethyl)-4-morpholinium chloride] | 22.7
10 | O=C(NCCCN1CCOCC1)c1ccc2c(c1)C(=O)N(c1ccccc1F)C2=O [Compound 12, 4-(3-{[2-(2-fluoro-phenyl)-1,3-dioxo-2,3-dihydro-1H-isoindol-5-carbonyl]-amino}-propyl)-4-morpholinium chloride] | 21.1
11 | O=C(NCCN1CCCCC1)c1ccc2c(c1)C(=O)N(c1cccc(F)c1)C2=O [Compound 13, 1-(2-{[2-(3-fluoro-phenyl)-1,3-dioxo-2,3-dihydro-1H-isoindol-5-carbonyl]-amino}-ethyl)-piperidinium chloride] | 43
12 | O=C(NCCN1CCCC1)c1ccc2c(c1)C(=O)N(c1cccc(F)c1)C2=O [Compound 15, 1-(2-{[2-(3-fluoro-phenyl)-1,3-dioxo-2,3-dihydro-1H-isoindol-5-carbonyl]-amino}-ethyl)-pyrrolidinium chloride] | 25.8
13 | O=C(NCCCN1CCCC1)c1ccc2c(c1)C(=O)N(c1cccc(F)c1)C2=O [Compound 16, 1-(3-{[2-(3-fluoro-phenyl)-1,3-dioxo-2,3-dihydro-1H-isoindol-5-carbonyl]-amino}-propyl)-pyrrolidinium chloride] | 30
14 | O=C(NCCN1CCOCC1)c1ccc2c(c1)C(=O)N(c1cccc(F)c1)C2=O [Compound 17, 4-(2-{[2-(3-fluoro-phenyl)-1,3-dioxo-2,3-dihydro-1H-isoindol-5-carbonyl]-amino}-ethyl)-4-morpholinium chloride] | 29.2
15 | O=C(NCCCN1CCOCC1)c1ccc2c(c1)C(=O)N(c1cccc(F)c1)C2=O [Compound 18, 4-(3-{[2-(3-fluoro-phenyl)-1,3-dioxo-2,3-dihydro-1H-isoindol-5-carbonyl]-amino}-propyl)-4-morpholinium chloride] | 22.7
16 | O=C(NCCN1CCCCC1)c1ccc2c(c1)C(=O)N(c1ccccc1Cl)C2=O [Compound 25, 1-(2-{[2-(2-chloro-phenyl)-1,3-dioxo-2,3-dihydro-1H-isoindol-5-carbonyl]-amino}-ethyl)-piperidinium chloride] | 38.2
17 | O=C(NCCN1CCCCC1)c1ccc2c(c1)C(=O)N(c1cccc(Cl)c1)C2=O [Compound 26, 1-(2-{[2-(3-chloro-phenyl)-1,3-dioxo-2,3-dihydro-1H isoindol-5-carbonyl]-amino}-ethyl)-piperidinium chloride] | 52.7
18 | O=C(NCCN1CCCCC1)c1ccc2c(c1)C(=O)N(c1ccc(Cl)cc1)C2=O [Compound 27, 1-(2-{[2-(4-chloro-phenyl)-1,3-dioxo-2,3-dihydro-1H-isoindol-5-carbonyl]-amino}-ethyl)-piperidinium chloride] | 44.5
19 | Cc1ccccc1N1C(=O)c2ccc(C(=O)NCCN3CCCCC3)cc2C1=O [Compound 28, 1-{2-[(1,3-dioxo-2-o-tolyl-2,3-dihydro-1H-isoindol-5-carbonyl)-amino]-ethyl}-piperidinium chloride] | 45.6
20 | Cc1ccccc1N1C(=O)c2ccc(C(=O)NCCN3CCCC3)cc2C1=O [Compound 30, 1-{2-[(1,3-dioxo-2-o-tolyl-2,3-dihydro-1H-isoindol-5-carbonyl)-amino]-ethyl}-pyrrolidinium chloride] | 33.6

Second part, the molecule after the results:

Row | inhibition at 100 µM [%] | SMILES
21 | 33.8 | CC1CCCCN1CCCNC(=O)c1ccc2c(c1)C(=O)N(c1ccccc1)C2=O (stereo not drawn) [Compound 2, 1-{3-[(1,3-dioxo-2-phenyl-2,3-dihydro-1H-isoindol-5-carbonyl)-amino]-propyl}-2-methyl-piperidinium chloride]
22 | 36.8 | CC1CCCCN1CCCNC(=O)c1ccc2c(c1)C(=O)N(c1ccccc1F)C2=O (stereo not drawn) [Compound 8, 1-(3-{[2-(2-fluoro-phenyl)-1,3-dioxo-2,3-dihydro-1H-isoindol-5-carbonyl]-amino}-propyl)-2-methyl-piperidinium chloride]
23 | 44.2 | CC1CCCCN1CCCNC(=O)c1ccc2c(c1)C(=O)N(c1cccc(F)c1)C2=O (stereo not drawn) [Compound 14, 1-(3-{[2-(3-fluoro-phenyl)-1,3-dioxo-2,3-dihydro-1H-isoindol-5-carbonyl]-amino}-propyl)-2-methyl-piperidinium chloride]
24 | 45.7 | O=C(NCCN1CCCCC1)c1ccc2c(c1)C(=O)N(c1ccc(F)cc1)C2=O [Compound 19, 1-(2-{[2-(4-fluoro-phenyl)-1,3-dioxo-2,3-dihydro-1H-isoindol-5-carbonyl]-amino}-ethyl)-piperidinium chloride]
25 | 44.7 | CC1CCCCN1CCCNC(=O)c1ccc2c(c1)C(=O)N(c1ccc(F)cc1)C2=O (stereo not drawn) [Compound 20, 1-(3-{[2-(4-fluoro-phenyl)-1,3-dioxo-2,3-dihydro-1H-isoindol-5-carbonyl]-amino}-propyl)-2-methyl-piperidinium chloride]
26 | 19.4 | O=C(NCCN1CCCC1)c1ccc2c(c1)C(=O)N(c1ccc(F)cc1)C2=O [Compound 21, 1-(2-{[2-(4-fluoro-phenyl)-1,3-dioxo-2,3-dihydro-1H-isoindol-5-carbonyl]-amino}-ethyl)-pyrrolidinium chloride]
27 | 19.3 | O=C(NCCCN1CCCC1)c1ccc2c(c1)C(=O)N(c1ccc(F)cc1)C2=O [Compound 22, 1-(3-{[2-(4-fluoro-phenyl)-1,3-dioxo-2,3-dihydro-1H-isoindol-5-carbonyl]-amino}-propyl)-pyrrolidinium chloride]
28 | 14.5 | O=C(NCCN1CCOCC1)c1ccc2c(c1)C(=O)N(c1ccc(F)cc1)C2=O [Compound 23, 4-(2-{[2-(4-fluoro-phenyl)-1,3-dioxo-2,3-dihydro-1H-isoindol-5-carbonyl]-amino}-ethyl)-4-morpholinium chloride]
29 | 21.4 | O=C(NCCCN1CCOCC1)c1ccc2c(c1)C(=O)N(c1ccc(F)cc1)C2=O [Compound 24, 4-(3-{[2-(4-fluoro-phenyl)-1,3-dioxo-2,3-dihydro-1H-isoindol-5-carbonyl]-amino}-propyl)-4-morpholinium chloride]
30 | 53.8 | Cc1ccccc1N1C(=O)c2ccc(C(=O)NCCCN3CCCCC3C)cc2C1=O (stereo not drawn) [Compound 29, 1-{3-[(1,3-dioxo-2-o-tolyl-2,3-dihydro-1H-isoindol-5-carbonyl)-amino]-propyl}-2-methyl-piperidinium chloride]
